Results on 22 compounds are retold here after paper PMC10268634 (ACS Omega, 2023).

By IC50 is commonly meant the concentration that gives 50% inhibition.

The target of assay [1] is T1, α-amylase (Homo sapiens, UniProt P04746).
T1 sequence (P04746 16-511): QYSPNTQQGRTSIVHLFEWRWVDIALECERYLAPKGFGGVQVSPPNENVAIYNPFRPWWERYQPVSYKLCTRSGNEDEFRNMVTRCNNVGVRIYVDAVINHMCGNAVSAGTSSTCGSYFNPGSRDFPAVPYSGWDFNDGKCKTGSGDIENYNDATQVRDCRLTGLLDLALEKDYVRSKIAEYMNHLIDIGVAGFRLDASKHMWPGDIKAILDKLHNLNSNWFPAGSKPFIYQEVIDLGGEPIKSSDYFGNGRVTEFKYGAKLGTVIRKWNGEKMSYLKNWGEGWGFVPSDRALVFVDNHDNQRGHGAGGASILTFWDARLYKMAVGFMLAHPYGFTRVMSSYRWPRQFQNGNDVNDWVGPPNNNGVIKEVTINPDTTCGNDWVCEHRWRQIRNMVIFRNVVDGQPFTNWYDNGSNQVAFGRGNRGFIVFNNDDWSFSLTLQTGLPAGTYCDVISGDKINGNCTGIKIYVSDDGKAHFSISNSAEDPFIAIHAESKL
Put plainly: biochemical.

A short description of assay [2]: DPPH radical scavenging. Conditions: for IC50: read-out: DPPH (IC50 value in μM). (In general: Loss of DPPH colour is used to gauge radical scavenging.)

In assay [1], `CC(=O)N1N=C(c2ccccc2)CC1c1ccccc1O` (stereo not drawn) [Compound 1, 1-(5-(2-Hydroxyphenyl)-3-phenyl-4,5-dihydro-1H-pyrazol-1-yl)ethanone] returned an IC50 of 188 µM. Also, in assay [2], the “DPPH (IC50 value in μM)” value was “potential antioxidant activity” and the IC50 is 84.2 µM.
Taken in the same sequence, the figures for `CC(=O)N1N=C(c2ccccc2)CC1c1ccco1` (stereo not drawn) [Compound 2, 1-(5-(Furan-2-yl)-3-phenyl-4,5-dihydro-1H-pyrazol-1-yl)ethanone] were 301 µM, “potential antioxidant activity” and 85.1 µM.
On to `CC(=O)N1N=C(c2ccccc2)CC1c1cccc([N+](=O)[O-])c1` (stereo not drawn) [Compound 3, 1-(5-(3-Nitrophenyl)-3-phenyl-4,5-dihydro-1H-pyrazol-1-yl)ethanone], for which the IC50 in assay [1] came to 604 µM; in assay [2], 205 µM.
As for `CC(=O)N1N=C(c2ccccc2)CC1c1ccccn1` (stereo not drawn) [Compound 4, 1-(3-Phenyl-5-(pyridin-2-yl)-4,5-dihydro-1H-pyrazol-1-yl)ethanone], the results for the 50% inhibitory concentration (IC50) in assay [1] and in assay [2] were 663 µM and 914 µM, respectively.
Consider `CC(=O)N1N=C(c2ccccc2)CC1c1ccc(C)cc1` (stereo not drawn) [Compound 5, 1-(3-Phenyl-5-(p-tolyl)-4,5-dihydro-1H-pyrazol-1-yl)ethanone], for which the IC50 is 35.5 µM in assay [1] and 30 µM in assay [2]. Moreover, in assay [2], the “DPPH (IC50 value in μM)” value is given as “potential antioxidant activity”.
As for `COc1ccc(C2=NN(C(C)=O)C(c3ccco3)C2)cc1` (stereo not drawn) [Compound 6, 1-(5-(Furan-2-yl)-3-(4-methoxyphenyl)-4,5-dihydro-1H-pyrazol-1-yl)ethanone], the figures for the IC50 in assay [1] and in assay [2] were 811 µM and 554 µM, respectively.
As for `CC(=O)N1N=C(c2ccc(O)cc2)CC1c1ccccn1` (stereo not drawn) [Compound 7, 1-(3-(4-Hydroxyphenyl)-5-(pyridin-2-yl)-4,5-dihydro-1H-pyrazol-1-yl)ethanone], the IC50 was 196 µM in assay [1] and 69 µM in assay [2]. Also, the “DPPH (IC50 value in μM)” value in assay [2] is on record as “potential antioxidant activity”.
Turning to `CC(=O)N1N=C(c2ccc(O)cc2)CC1c1ccco1` (stereo not drawn) [Compound 8, 1-(5-(Furan-2-yl)-3-(4-hydroxyphenyl)-4,5-dihydro-1H-pyrazol-1-yl)ethanone], the IC50 in assay [1] came out at 1.07 µM; in assay [2], 106 µM. The “DPPH (IC50 value in μM)” value in assay [2] was “potential antioxidant activity”.
Take `CC(=O)N1N=C(c2ccc(O)cc2)CC1c1cccc([N+](=O)[O-])c1` (stereo not drawn) [Compound 9, 1-(3-(4-Hydroxyphenyl)-5-(3-nitrophenyl)-4,5-dihydro-1H-pyrazol-1-yl)ethanone]: the concentration for half-maximal inhibition (IC50) in assay [1] was 632 µM; in assay [2], 161 µM.
As to `CC(=O)N1N=C(c2ccc(O)cc2)CC1c1ccc(N(C)C)cc1` (stereo not drawn) [Compound 10, 1-(5-(4-(Dimethylamino)phenyl)-3-(4-hydroxyphenyl)-4,5-dihydropyrazol-1-yl)ethanone], the IC50 in assay [1] amounted to 388 µM; in assay [2], 41.1 µM. Further, the “DPPH (IC50 value in μM)” value in assay [2] is recorded as “potential antioxidant activity”.
For the compound `COc1ccc(C2CC(c3ccc(O)cc3)=NN2C(C)=O)cc1` (stereo not drawn) [Compound 11, 1-(3-(4-Hydroxyphenyl)-5-(4-methoxyphenyl)-4,5-dihydro-1H-pyrazol-1-yl)ethanone], the IC50 in assay [1] was 0.551 µM; in assay [2], 53.5 µM. In addition, the “DPPH (IC50 value in μM)” value in assay [2] was “potential antioxidant activity”.
Regarding `CC(=O)N1N=C(c2ccc(O)cc2)CC1c1ccc(C)cc1` (stereo not drawn) [Compound 12, 1-(3-(4-Hydroxyphenyl)-5-(p-tolyl)-4,5-dihydro-1H-pyrazol-1-yl)ethanone], half-maximal inhibition in assay [1] (IC50) required 400 µM. Also, in assay [2], the “DPPH (IC50 value in μM)” value is given as “potential antioxidant activity” and the IC50 was 151 µM.
Take `COc1ccc(C2CC(c3ccc(Cl)cc3)=NN2C(C)=O)cc1` (stereo not drawn) [Compound 13, 1-(3-(4-Chlorophenyl)-5-(4-methoxyphenyl)-4,5-dihydro-1H-pyrazol-1-yl)ethanone]: in assay [2], the “DPPH (IC50 value in μM)” value is listed as “potential antioxidant activity” and the IC50 was found to be 131 µM.
For the compound `CC(=O)N1N=C(c2ccc(Cl)cc2)CC1c1ccc(C)cc1` (stereo not drawn) [Compound 14, 1-(3-(4-Chlorophenyl)-5-(p-tolyl)-4,5-dihydro-1H-pyrazol-1-yl)ethanone], in assay [2], the IC50 came out at 179 µM.
As to `CC(=O)N1N=C(c2ccc(Cl)cc2)CC1c1cccs1` (stereo not drawn) [Compound 15, 1-(3-(4-Chlorophenyl)-5-(thiophen-2-yl)-4,5-dihydro-1H-pyrazol-1-yl)ethanone], the IC50 in assay [1] stood at 425 µM; in assay [2] it was 383 µM.
Turning to `COc1ccc(C2CC(c3ccc(Cl)cc3)=NN2C(C)=O)cc1O` (stereo not drawn) [Compound 16, 1-(3-(4-Chlorophenyl)-5-(3-hydroxy-4-methoxyphenyl)-4,5-dihydropyrazol-1-yl)ethanone], the 50% inhibitory concentration (IC50) was 62.5 µM in assay [1] and 56.3 µM in assay [2].
In the case of `CC(=O)N1N=C(c2ccc(Cl)cc2)CC1c1cccc(O)c1` (stereo not drawn) [Compound 17, 1-(3-(4-Chlorophenyl)-5-(3-hydroxyphenyl)-4,5-dihydropyrazol-1-yl)ethanone], the results for the IC50 in assay [1] and in assay [2] were 315 µM and 160 µM, respectively.
Regarding `CC(=O)N1N=C(c2ccc(Cl)cc2)CC1c1ccccn1` (stereo not drawn) [Compound 18, 1-(3-(4-Chlorophenyl)-5-(pyridin-2-yl)-4,5-dihydro-1H-pyrazol-1-yl)ethanone], the IC50 is 281 µM in assay [1] and 199 µM in assay [2].
Take `CC(=O)N1N=C(c2ccc(Cl)cc2)CC1c1ccccc1` (stereo not drawn) [Compound 19, 1-(3-(4-Chlorophenyl)-5-phenyl-4,5-dihydro-1H-pyrazol-1-yl)ethanone]: the IC50 in assay [2] came out at 172 µM.
Consider `CC(=O)N1N=C(c2ccc(Cl)cc2)CC1c1ccccc1O` (stereo not drawn) [Compound 20, 1-(3-(4-Chlorophenyl)-5-(2-hydroxyphenyl)-4,5-dihydro-1H-pyrazol-1-yl)ethanone], for which, in assay [1], half-maximal inhibition (IC50) was put at 590 µM. In assay [2], the “DPPH (IC50 value in μM)” value is given as “potential antioxidant activity” and the IC50 was 99.6 µM.
In the case of `CC(=O)N1N=C(c2ccc(Cl)cc2)CC1c1ccco1` (stereo not drawn) [Compound 21, 1-(3-(4-Chlorophenyl)-5-(furan-2-yl)-4,5-dihydro-1H-pyrazol-1-yl)ethanone], the values for the concentration for half-maximal inhibition (IC50) in assay [1] and in assay [2] were 262 µM and 580 µM, respectively.
Turning to `CC(=O)N1N=C(c2ccc(Cl)cc2)CC1c1cccc([N+](=O)[O-])c1` (stereo not drawn) [Compound 22, 1-(3-(4-Chlorophenyl)-5-(3-nitrophenyl)-4,5-dihydro-1H-pyrazol-1-yl)ethanone], the IC50 in assay [1] worked out at 61.5 µM; in assay [2], 220 µM.
